Measurements reported in patent US5194645A, “Trans-Pt (IV) compounds” (Johnson Matthey Public Limited Company, priority 1991, dated 1993).

What was measured:
GCT27 ®/GCT27 = experiment: Resistance factor GCT27 ®/GCT27; assay type: cell-based, human; settings: ratio of IC50 resistant to nonresistant line, testicular
Experimental: (§1) Additional in vitro biological testing was conducted using cell lines derived from human carcinomas and maintained at the Institute of Cancer Research, Sutton, England (see C A Hills & colleagues, Br J Cancer 59, 527-34 (1989)). Monolayer cells were trypsinized and seeded in 96-well microtiter plates at a density of 1×10^4 cells/well in 200 μl of growth medium. Cells were incubated overnight and test compounds were added to triplicate wells at various concentrations for a total of 48 to 96 hours. For toxicity analysis after drug exposure, the cells were fixed with trichloroacetic acid and stained for cellular protein content by incubation for 30 minutes with 0.4% (wt/vol) sulforodamine B (SRB) dissolved in 1% acetic acid. The unbound dye was removed by 1% acetic acid washes, and the bound dye was extracted with 10 mM Tris buffer. The amount of dye in solution was quantified by absorbance at 564 nm.
(§2) In the Tables A and B below, all the cells are ovarian cancer cells with the exception of GCT27^R /GCT27 which are testicular. Table A gives IC50 values in μM; Table B gives Resistance Factors as a ratio of IC50 for a cell line bred to be resistant to cisplatin against IC50 for the nonresistant cell line.

41M = experiment: In vitro cytotoxicity (SRB), 41M; assay type: cell-based, human; settings: ovarian cancer, 48 to 96 hours
Experimental: as §1, §2

HX62 = experiment: In vitro cytotoxicity (SRB), HX62; assay type: cell-based, human; settings: HX62, ovarian cancer, 48 to 96 hours
Experimental: as §1, §2

PXN/94 = experiment: In vitro cytotoxicity (SRB), PXN/94; assay type: cell-based, human; settings: PXN/94, ovarian cancer, 48 to 96 hours
Experimental: as §1, §2

Adj/PC6 = experiment: In vivo Adj/PC6 tumour test in mice (LD50, ED90, therapeutic index)
Experimental: The Adj/PC6 testing was carried out as described by P M Goddard et al presented in Sixth NCI-EORTC Symposium on New Drugs in Cancer Therapy 1989, which is a development of the basic method described by T A Connors et al, Chem Biol Interact 5, 415(1972). The in vivo L1210 tests were conducted according to the NCI protocol, Cancer Chemotherapy Reports, Part 3, vol 2, (Sept 1972) except that the animals used were DBA/2 mice and that dosing was carried out on days 1, 5 and 9. The animals were sacrificed when moribund. The compounds were administered parenterally (ip).
In the Adj/PC6 testing, LD50 and ED90 values in mg/kg body weight were determined in the conventional manner. The therapeutic index (TI) was calculated as the ratio of LD50 to ED90, and the results are shown below.
Additional tests were carried out in vivo using the compound of Example 2, against sensitive Adj/PC6 tumour cell lines, and against tumour cell lines resistant to various platinum anti-tumour agents, and a TI (Therapeutic Index) calculated, as described above.

CHI = experiment: In vitro cytotoxicity (SRB), CHI; assay type: cell-based, human; settings: ovarian cancer, 48 to 96 hours
Experimental: as §1, §2

41M ® = experiment: In vitro cytotoxicity (SRB), 41M ®; assay type: cell-based, human; settings: 41M ® (cisplatin resistant), ovarian cancer, 48 to 96 hours
Experimental: as §1, §2

OVCAR-3 [1] = experiment: In vivo OVCAR-3 ovarian carcinoma xenograft; set-up: species or system mice; settings: tumour volume vs control
Adj/PC6/cisplatin res = experiment: In vivo Adj/PC6 cisplatin-resistant tumour test in mice
Experimental: (§3) The animals were sacrificed when moribund. The compounds were administered parenterally (ip).

SKOV-3 = experiment: In vitro cytotoxicity (SRB), SKOV-3; assay type: cell-based, human; settings: SKOV-3, ovarian cancer, 48 to 96 hours
Experimental: as §1, §2

Resistant L1210 = experiment: In vivo cisplatin-resistant L1210 leukemia, increase in life span; settings: 9 mg/kg, ip, days 1, 5 and 9, DBA/2 mice, L1210 resistant to cisplatin
Experimental: as §3
(§4) The compound of Example 2 was tested against L1210 leukemia, and also against a strain of L1210 resistant to cisplatin, in mice, and the increase in life span (ILS) determined against control mice not being administered any active compound, according to the equation, [formula] where T=days survival of treated mice and
(§5) C=days survival of control mice

41M ®/41M = experiment: Resistance factor 41M ®/41M; assay type: cell-based, human; settings: ratio of IC50 resistant to nonresistant line, ovarian
Experimental: as §1, §2

L1210 = experiment: In vivo L1210 leukemia, increase in life span; settings: 9 mg/kg, ip, days 1, 5 and 9, DBA/2 mice
Experimental: as §3, §4, §5

Adj/PC6/tetraplatin res = experiment: In vivo Adj/PC6 tetraplatin-resistant tumour test in mice; set-up: key to ED90: --: indicates 90% inhibition not achieved for doses up to LD50
Experimental: as §3

CHI ®/CHI = experiment: Resistance factor CHI ®/CHI; assay type: cell-based, human; settings: ratio of IC50 resistant to nonresistant line, ovarian
Experimental: as §1, §2

CHI ® = experiment: In vitro cytotoxicity (SRB), CHI ®; assay type: cell-based, human; settings: CHI ® (cisplatin resistant), ovarian cancer, 48 to 96 hours
Experimental: as §1, §2

A2780 ®/A2780 = experiment: Resistance factor A2780 ®/A2780; assay type: cell-based, human; settings: ratio of IC50 resistant to nonresistant line, ovarian
Experimental: as §1, §2

Adj/PC6/iproplatin res = experiment: In vivo Adj/PC6 iproplatin-resistant tumour test in mice
Experimental: as §3

OVCAR-3 [2] = experiment: In vivo OVCAR-3 ovarian carcinoma xenograft; set-up: species or system mice; settings: for Growth Delay: delay in doubling of tumour volume vs control
Experimental: The "growth delay" was also measured which represents the delay in achieving a doubling of the tumour volume for the treated group compared to the control group.

[3] = Adj/PC6, comparison with cis-isomer

With [NH2][Pt]([OH])([OH])([Cl])([Cl])[NH]C1CCCCC1 [EX 2, trans-[PtCl2 (OH)2 (NH3)(c-C6H11 NH2)]] the “Resistance Factor GCT27 ®/GCT27” value (GCT27 ®/GCT27) was 1.8, the IC50 (41M) was 1500 nM and the IC50 (HX62) was 5.9 µM. For the same molecule, the IC50 (PXN/94) was 3.7 µM, the ED90 (Adj/PC6; [3]) was 0.76 mg/kg and the “TI (Therapeutic Index)” value (Adj/PC6; [3]) was 11.6. For the same molecule, the ED90 (Adj/PC6; Adj/PC6 testing, mice, ip) was 0.76 mg/kg body weight, the LD50 (Adj/PC6; Adj/PC6 testing, mice, ip) was 8.8 mg/kg body weight and the “TI (therapeutic index, ratio of LD50 to ED90)” value (Adj/PC6; Adj/PC6 testing, mice, ip) was 11.6. For the same molecule, the “activity compared with the cis isomer” value (Adj/PC6; sensitive and platinum-resistant Adj/PC6 tumours) was “possesses activity, and a different spectrum of activity to the cis isomer”, the IC50 (CHI) was 1400 nM and the IC50 (41M ®) was 1800 nM. For the same molecule, the “T/C (day 28)” value (OVCAR-3 [1]; 1 mg/kg) was 0.80, the “T/C (day 28)” value (OVCAR-3 [1]; 2 mg/kg) was 0.64 and the “T/C (day 28)” value (OVCAR-3 [1]; 4 mg/kg) was 0.48. For the same molecule, the ED90 (Adj/PC6/cisplatin res) was 5.6 mg/kg, the LD50 (Adj/PC6/cisplatin res) was 10.5 mg/kg and the “TI (Therapeutic Index)” value (Adj/PC6/cisplatin res) was 1.88. The IC50 (SKOV-3) was 8.8 µM, the “ILS (increase in life span)” value (Resistant L1210) was 39% and the “Resistance Factor 41M ®/41M” value (41M ®/41M) was 1.2. The “ILS (increase in life span)” value (L1210) was 77%, the ED90 (Adj/PC6/tetraplatin res) was “--” and the LD50 (Adj/PC6/tetraplatin res) was 8.8 mg/kg. For the same molecule, the “Resistance Factor CHI ®/CHI” value (CHI ®/CHI) was 1.6, the IC50 (CHI ®) was 2200 nM and the “Resistance Factor A2780 ®/A2780” value (A2780 ®/A2780) was 7.1. For the same molecule, the ED90 (Adj/PC6/iproplatin res) was 2.6 mg/kg, the LD50 (Adj/PC6/iproplatin res) was 8.8 mg/kg and the “TI (Therapeutic Index)” value (Adj/PC6/iproplatin res) was 3.4. For the same molecule, the “Growth Delay” value (OVCAR-3 [2]; 1 mg/kg) was 0.9 days, the “Growth Delay” value (OVCAR-3 [2]; 2 mg/kg) was 12.0 days and the “Growth Delay” value (OVCAR-3 [2]; 4 mg/kg) was 16.8 days. For the same molecule, the “dose-related effect (OVCAR-3 xenograft)” value (OVCAR-3 [2]; increasing doses) was “clear dose-related effect”.
